# Like-named read-outs stand apart in the source and are kept apart here.
# Columns and labels:
# MPSV = assay: MTT antiviral assay, mumps virus in HMV-2 cells; type: cell-based, mumps virus (MPSV) ECXH-3 strain; conditions: Mumps orthorubulavirus, HMV-2, read-out: EC50 MPSV (EXCH-3)
# MLSV = assay: microbe, parasite or virus in culture; type: cell-based, Measles virus (MLSV) Edmonston strain; conditions: Measles morbillivirus
# in vitro [1] = conditions: human, hmv-2 cells
# RSV-B (SM61-48) = assay: microbe, parasite or virus in culture; type: cell-based, RSV SM-61-48 (type-B); conditions: human respiratory syncytial virus; Table 3; fresh isolate; ^b data from one experiment
# in vitro [2] = conditions: dog, mdck
# HMV-2 cells = conditions: read-out: Cytotoxicity IC50 HMV-2, Table 3
# FluV-A = assay: microbe, parasite or virus in culture; type: cell-based, influenza virus A/Ishikawa/7/82 (H3N2)
# PFluV-3 = assay: MTT antiviral assay, parainfluenzavirus type 3 in Vero cells; type: cell-based, C243 strain; conditions: Table 3, average of 3 to 4 independent experiments, read-out: EC50 PFluV-3 (C243)
# PFluV-2 = assay: MTT antiviral assay, parainfluenzavirus type 2 in HMV-2 cells; type: cell-based, Greer strain; conditions: Table 3, average of 3 to 4 independent experiments, read-out: EC50 PFluV-2 (Greer)
# FluV-B = assay: MTT antiviral assay, FluV-B in MDCK cells; type: cell-based, influenza virus B/Singapore/222/79; conditions: influenza B virus, read-out: EC50 FluV-B (Singapore)
# in vitro [3] = conditions: human, hep-2 cells
# RSV = assay: microbe, parasite or virus in culture; type: cell-based, RSV Long strain (type-A); conditions: human respiratory syncytial virus
# RSV-A (FM-58-8) = assay: microbe, parasite or virus in culture; type: cell-based, RSV FM-58-8 (type-A); conditions: human respiratory syncytial virus; Table 3; fresh isolate; ^b data from one experiment
# in vitro [4] = conditions: monkey, vero cells, Cytotoxicity IC50 Vero, Table 3
# [5] = viable cell counting (parentheses)
smiles,measurement,setting,value
NC(=O)c1ncn([C@@H]2O[C@H](CO)[C@@H](O)[C@H]2O)n1 [Ribavirin],EC50,MPSV,3.4 µM
same,EC50,"MLSV; HMV-2, read-out: Antiviral activity, EC50 MLSV",5.2 µM
same,EC50,"MLSV; HMV-2, read-out: EC50 MLSV (Edmonston)",5.2 µM
same,CC50,in vitro [1],> 100 µM
same,EC50,RSV-B (SM61-48),1.6 µM
same,CC50,"in vitro [2]; Cytotoxicity IC50 MDCK, Table 3, MTT method",> 200 µM
same,CC50,"in vitro [2]; Cytotoxicity IC50 MDCK, Table 3, viable cell counting (parentheses)",> 200 µM
same,CC50,"in vitro [2]; Cytotoxicity, IC50 MDCK, Table 2",> 100 µM
same,CC50,HMV-2 cells; MTT method,> 100 µM
same,CC50,HMV-2 cells; [5],> 100 µM
same,EC50,"FluV-A; Ishikawa, read-out: EC50 FluV-A (Ishikawa)",3.7 µM
same,EC50,"FluV-A; MDCK, read-out: Antiviral activity, EC50 FluV-A",8.7 µM
same,EC50,PFluV-3,17.2 µM
same,EC50,PFluV-2,8.9 µM
same,EC50,FluV-B,5.1 µM
same,CC50,"in vitro [3]; Cytotoxicity IC50 HEp-2, Table 3, MTT method",52.7 µM
same,CC50,"in vitro [3]; Cytotoxicity IC50 HEp-2, Table 3, viable cell counting (parentheses)",> 200 µM
same,CC50,"in vitro [3]; Cytotoxicity, IC50 HEp-2, Table 2",> 50 µM
same,EC50,"RSV; Table 2, read-out: Antiviral activity, EC50 RSV",4.7 µM
same,EC50,"RSV; Table 3, average of 3 to 4 independent experiments, read-out: EC50 RSV-A (Long)",4.7 µM
same,EC50,RSV-A (FM-58-8),3.5 µM
same,CC50,in vitro [4]; MTT method,100 µM
same,CC50,in vitro [4]; [5],> 200 µM

# — patent publication US5824706A (priority 1995, dated 1998)
